Laboratory results reported in patent US11076597B2, “High stress resistant plant growth regulator and preparation method and use thereof” (SHANGHAI INSTITUTES FOR BIOLOGICAL SCIENCES, CHINESE …, priority 2015, dated 2021).
Entries after “also recorded” stand apart in the source; their conditions may differ.

Legend:
[1] = target: T1, PYR1 receptor-HAB1 protein phosphatase complex (Arabidopsis thaliana, UniProt O49686); assay: AlphaScreen assay, PYR1 receptor binding to HAB1; assay type: biochemical; conditions: fraction of the EC50 of ABA; FIG. 2a, 2h
T1 construct: made in house; host or cells: E. coli BL21 (DE3)
T1 sequence (O49686 1-191): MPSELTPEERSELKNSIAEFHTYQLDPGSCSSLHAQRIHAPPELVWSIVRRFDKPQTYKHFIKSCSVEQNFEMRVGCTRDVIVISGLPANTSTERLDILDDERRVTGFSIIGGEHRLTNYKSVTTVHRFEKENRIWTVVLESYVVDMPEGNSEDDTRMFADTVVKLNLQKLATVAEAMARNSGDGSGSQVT
T1 sequence (Q9CAJ0 172-511 partner limits assumed): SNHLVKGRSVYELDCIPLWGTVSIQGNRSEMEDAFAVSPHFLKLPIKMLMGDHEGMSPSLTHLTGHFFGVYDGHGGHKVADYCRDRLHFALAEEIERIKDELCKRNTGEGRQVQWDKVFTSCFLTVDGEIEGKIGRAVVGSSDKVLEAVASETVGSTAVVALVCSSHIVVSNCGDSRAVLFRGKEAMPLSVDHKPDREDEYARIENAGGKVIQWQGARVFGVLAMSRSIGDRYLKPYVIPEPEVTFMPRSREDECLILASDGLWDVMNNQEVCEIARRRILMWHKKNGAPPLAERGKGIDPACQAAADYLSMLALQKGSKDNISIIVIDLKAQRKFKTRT
Experimental: (§1) The AlphaScreen kit (available from Perkin Elmer) was used, and the method was as follows: a 10× buffer (50 mM MOPS, pH 7.4, 50 mM NaF, 50 mM CHAPS, 0.1 mg/ml bovine serum albumin) diluted at 1:10, each of 100 nM HAB1 with Biotin tag sequence and PYR1/PYL1/PYL2/PYL7/GmPYL6/OsPYL2 protein with dual tags of 6×His and SUMO sequences, corresponding concentrations of (+)-ABA/0224/0304/0706/0708/0713/0715/0428/NC0F4, and 5 μg/ml donor beads and acceptor beads (available from Perkin Elmer) were contained in 150 μl of experimental system. After incubating for 1.5 hours at room temperature in the dark, it was placed into an Envision Plate Reader (available from Perkin Elmer) under the programmed AlphaScreen procedure for readings.
(§2) AlphaScreen technology was used to test the ability of the compounds of the present invention to promote PYL receptor binding to PP2C protein phosphatase (HAB1).

[2] = target: T2, PYL7 receptor-HAB1 protein phosphatase complex (Arabidopsis thaliana, UniProt Q1ECF1); assay: AlphaScreen assay, PYL7 receptor binding to HAB1; assay type: biochemical; set-up: unit not given beside the values; conditions: fraction of the EC50 of ABA; FIG. 2d
T2 construct: made in house; host or cells: E. coli BL21 (DE3)
T2 sequence (Q1ECF1 1-211): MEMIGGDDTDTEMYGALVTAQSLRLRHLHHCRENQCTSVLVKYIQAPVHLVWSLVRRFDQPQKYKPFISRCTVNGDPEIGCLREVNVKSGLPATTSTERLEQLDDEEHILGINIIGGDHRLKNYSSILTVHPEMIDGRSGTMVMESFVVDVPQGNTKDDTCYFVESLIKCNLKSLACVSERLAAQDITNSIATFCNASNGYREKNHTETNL
T2 sequence (Q9CAJ0 172-511 partner limits assumed): T1 sequence (Q9CAJ0 172-511 partner limits assumed)
Experimental: as §1, §2

[3] = target: T3, PYL1 receptor-HAB1 protein phosphatase complex (Arabidopsis thaliana, UniProt Q8VZS8); assay: AlphaScreen assay, PYL1 receptor binding to HAB1; assay type: biochemical; conditions: fraction of the EC50 of ABA; FIG. 2b
T3 construct: made in house; host or cells: E. coli BL21 (DE3)
T3 sequence (Q8VZS8 36-211): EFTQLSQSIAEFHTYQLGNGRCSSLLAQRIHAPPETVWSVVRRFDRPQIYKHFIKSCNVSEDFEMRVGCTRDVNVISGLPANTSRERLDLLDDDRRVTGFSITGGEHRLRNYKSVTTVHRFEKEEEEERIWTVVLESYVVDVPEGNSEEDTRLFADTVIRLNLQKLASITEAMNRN
T3 sequence (Q9CAJ0 172-511 partner limits assumed): T1 sequence (Q9CAJ0 172-511 partner limits assumed)
Experimental: as §1, §2

[4] = system: Arabidopsis thaliana Col-0 ecotype seeds; assay: Seed germination, Col-0 ecotype; assay type: in vivo
Experimental: Take the compounds 0428 and 0224 of the present invention as examples. The seeds of Arabidopsis thaliana Col-0 ecotype and PYL receptor triple mutant (pyr1;pyl1;pyl4) were sterilized with NaClO and placed at 4° C. for 3 days of the vernalization, and then sown in ½ MS solid medium containing 1 μM (+)-ABA/0224 compound or 0.05% DMSO (control) or in ½ MS solid medium containing 2 μM (+)-ABA/compound 0428 of the present invention or 0.05% DMSO (control). Two lines of plant were sown simultaneously on each medium of 6 cm diameter, with 15-20 seeds sown for each line and 4 replicates for each compound. Culture medium was placed at 22° C. with long-day culture. The seeds germinated on a solid medium containing 1 μM (+)-ABA/0224 compound were photographed 6 days after sowing, and seeds germinated on solid medium containing 2 μM (+)-ABA/0428 compound were photographed 9 days after sowing.

[5] = system: soybean GmPYL6 + Arabidopsis AtHAB1; assay: AlphaScreen assay: promotion of the interaction of soybean GmPYL6 with Arabidopsis HAB1; assay type: binding, soybean (GmPYL6); Arabidopsis thaliana (HAB1); conditions: FIG. 13a; 6×His-SUMO-tagged soybean GmPYL6, Biotin-tagged Arabidopsis HAB1 (aa 172-511), 100 nM each; pH 7.4; 1.5 h room temperature
[6] = system: wheat; assay: Leaf transpiration experiment, wheat; assay type: in vivo; conditions: 100 μM spray 18 days after sowing, one day after spraying; FIG. 16
Experimental: ABA synthesis mutant aba2-1 was used in Arabidopsis leaf transpiration experiment. […] Therefore, this mutant is used to exclude the effect of endogenous ABA on the transpiration experiment. The plants were sprayed with a solution containing 0.05% tween-20 and corresponding concentrations of (+)-ABA/0224/0304/0706/0715/0428 or 0.05% Tween-20 and 0.05% DMSO (control) after three weeks of continuous watering with an amount of 1.2 ml/pot. Leaf transpiration experiments of soybeans were conducted at 26° C. with long-day lighting and soybeans were sprayed with a solution containing 0.1% tween-20 and 20 μM (+)-ABA/0224/0304 compound or 0.1% Tween-20 and 0.05% DMSO (control) 14 days after sowing with an amount of 4 ml/pot; the leaf transpiration experiments of cottons were sprayed with a solution containing 0.1% tween-20 and 20 μM (+)-ABA/0224 compound or 0.1% Tween-20 and 0.05% DMSO, respectively, 25 days after sowing with an amount of 4 ml/pot; the leaf transpiration experiments of wheats were sprayed with a solution containing 0.1% tween-20 and 100 μM (+)-ABA/0224 compound or 0.1% Tween-20 and 0.05% DMSO (control) 18 days after sowing with an amount of 6 ml/pot. […]
In this experiment, the temperature change of leaf surface was observed and recorded by an infrared camera, thus reflecting the strength of plant transpiration. […]

| Structure (SMILES) | EC50 value with PYR1 receptor-HAB1 complex as fraction of that of ABA [1] | EC50 value with PYL7 receptor-HAB1 complex as fraction of that of ABA [2] | EC50 value with PYL1 receptor-HAB1 complex as fraction of that of ABA [3] | inhibition of seed germination of Col-0 ([4]; 2 μM in 1/2 MS solid medium, 9 days after sowing, FIG. 15) | EC50 [5] [nM] | inhibition of seed germination of Col-0 ([4]; 1 μM in 1/2 MS solid medium, 6 days after sowing, FIG. 3) | leaf temperature versus DMSO control (leaf transpiration) [6] |
| --- | --- | --- | --- | --- | --- | --- | --- |
| CCCN1C(=O)OC(C)(C)c2cc(NS(=O)(=O)Cc3c(F)c(F)c(C)c(F)c3F)ccc21 [Compound 0304] | 1/24 | 1/10 | 1/7 |  |  |  |  |
| CCCN1C(=O)OCc2cc(NS(=O)(=O)Cc3c(F)c(F)c(C)c(F)c3F)ccc21 [Compound 0428] |  |  |  | can inhibit the seed germination of the Col-0; also recorded: could inhibit the seed germination of Col-0 ecotype | 6.28 |  |  |
| CCCN1C(=O)OC(C)c2cc(NS(=O)(=O)Cc3c(F)c(F)c(C)c(F)c3F)ccc21 (stereo not drawn) [Compound 0224] | 1/40 | 1/10 | ⅛ |  |  | can inhibit the seed germination of Col-0; also recorded: could inhibit the seed germination of Col-0 ecotype | significantly reduce the transpiration rate of the wheat leaf; also recorded: still significant higher than that of plants in DMSO-sprayed control group |
| CC1=CC(=O)CC(C)(C)[C@@]1(O)/C=C/C(C)=C\C(=O)O [ABA, Abscisic Acid, reference compound] |  |  |  |  | 88.4 |  | still significant higher than that of plants in DMSO-sprayed control group |
